Data as given in patent US6737383B1, “Herbicidal oxadiazolidines” (priority 1999, dated 2004).

Tests used:
blackgrass [1] = test: Test B pre/postemergence blackgrass; assay type: in vivo, Alopecurus myosuroides
In short: (§1)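 Test chemicals in a non-phytotoxic solvent mixture with surfactant were sprayed preemergence onto planted seeds and postemergence onto plants 2 to 18 cm tall (1- to 4-leaf stage). After twelve to sixteen days in a greenhouse, injury was visually rated against untreated controls from 0 (no effect) to 10 (complete control).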

winter wheat [2] = test: Test E winter wheat; assay type: in vivo, Triticum aestivum; conditions: Postemergence
In short: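 Visually scored herbicidal effect relative to untreated plants, taken ~21 to 28 days post-application; compound in solvent with surfactant; postemergence sprays at the 1- to 4-leaf stage.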

bedstraw = test: Test B pre/postemergence bedstraw; assay type: in vivo, Galium aparine
In short: as §1

Italian ryegrass = test: Test E Italian ryegrass; assay type: in vivo, Lolium multiflorum; conditions: Preemergence
smallflower flatsedge = test: Test B flood test smallflower flatsedge; assay type: in vivo, Cyperus difformis
In short: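 Each value is a visual injury score relative to controls, with 10 meaning complete control and 0 no effect. Evaluation took place twelve to sixteen days after the 2-leaf-stage plants were treated and kept in the greenhouse.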

blackgrass [3] = test: Test E blackgrass; assay type: in vivo, Alopecurus myosuroides; conditions: Preemergence
surinam grass = test: Test B pre/postemergence surinam grass; assay type: in vivo, Brachiaria decumbens
In short: as §1

bermuda-grass = test: Test D bermudagrass; assay type: in vivo, Cynodon dactylon; conditions: Preemergence, 0 to 100 scale
In short: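 Each weed species is planted in its own pot or compartment; preemergence doses go on the sandy loam surface within a day. The formulation is a surfactant-containing, non-phytotoxic solvent blend. Ratings come from visual comparison with untreated controls 14 to 21 days later, where 100 means complete control.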

green foxtail [4] = test: Test E green foxtail; assay type: in vivo, Setaria viridis; conditions: Preemergence
wild oat = test: Test E wild oat; assay type: in vivo, Avena fatua; conditions: Preemergence
winter wheat [5] = test: Test E winter wheat; assay type: in vivo, Triticum aestivum; conditions: Preemergence
winter barley = test: Test E winter barley; assay type: in vivo, Hordeum vulgare; conditions: Preemergence
goosegrass = test: Test D goosegrass; assay type: in vivo, Eleusine indica; conditions: Postemergence, 0 to 100 scale
Green foxtail [6] = test: Test D green foxtail; assay type: in vivo; conditions: Postemergence, 0 to 100 scale, 0 no injury, 100 complete control
Green foxtail [7] = test: Test D green foxtail; assay type: in vivo; conditions: Postemergence, 0 to 100 scale, 0 no injury, 100 complete control; remark: listed apart in the source
Green foxtail [8] = test: Test D green foxtail; assay type: in vivo; conditions: Rate 250 g/ha; Postemergence; 0 to 100 scale
[9] = Postemergence, Rate 250 g/ha, scale 0 to 10, 0 no effect, 10 complete control
[10] = Preemergence, Rate 62 g/ha, scale 0 to 10 (0 no effect, 10 complete control)
[11] = Preemergence, Rate 125 g/ha, scale 0 to 10 (0 no effect, 10 complete control)
[12] = Preemergence, Rate 250 g/ha, scale of 0 to 10 where 0 is no effect and 10 is complete control
[13] = Preemergence, Rate 500 g/ha, scale 0 to 10 (0 no effect, 10 complete control)
[14] = Rate 62 g/ha, Postemergence, scale of 0 to 10 where 0 is no effect and 10 is complete control
[15] = Rate 500 g/ha, Postemergence, scale 0 to 10, 0 no effect, 10 complete control
[16] = Rate 31 g/ha, 0 to 100 scale, 0 no effect, 100 complete control
[17] = Postemergence, Rate 62 g/ha, scale 0 to 10, 0 is no effect, 10 is complete control
[18] = Rate 125 g/ha, Postemergence, scale 0 to 10, 0 no effect, 10 complete control
[19] = Rate 62 g/ha, 0 to 100 scale, 0 no effect, 100 complete control
[20] = Rate 125 g/ha, 0 to 100 scale (0 no effect, 100 complete control)
[21] = Rate 16 g/ha, 0 no injury, 100 complete control
[22] = Rate 32 g/ha, 0 no injury, 100 complete control
[23] = Rate 64 g/ha, 0 no injury, 100 complete control
[24] = Rate 125 g/ha, 0 no injury, 100 complete control
[25] = Postemergence, Rate 125 g/ha, scale 0 to 10, 0 is no effect, 10 is complete control
[26] = Preemergence, Rate 500 g/ha, scale of 0 to 10 where 0 is no effect and 10 is complete control
[27] = Rate 250 g/ha, Postemergence, scale of 0 to 10 where 0 is no effect and 10 is complete control
[28] = Postemergence (flood test), Rate 125 g/ha, scale 0 to 10, 0 is no effect, 10 is complete control
[29] = Rate 62 g/ha, Postemergence (flood test species), scale of 0 to 10 where 0 is no effect and 10 is complete control
[30] = Rate 500 g/ha, listed under Postemergence (flood test species), scale 0 to 10, 0 no effect, 10 complete control
[31] = Postemergence, Rate 250 g/ha, scale 0 to 10, 0 is no effect, 10 is complete control

## CCn1c(=O)on(C(=O)N(c2ccc(F)cc2)C(C)C)c1=O [Compound 107]
Blackgrass [1]; Postemergence, Rate 125 g/ha, scale of 0 to 10 where 0 is no effect and 10 is complete control
  Blackgrass plant response rating: 7
Blackgrass [1]; [9]
  Blackgrass plant response rating: 8
Blackgrass [1]; [10]
  Blackgrass plant response rating: 9
Blackgrass [1]; [11]
  Plant response rating, Blackgrass: 10
Blackgrass [1]; [12]
  Plant response rating, Blackgrass: 10
Blackgrass [1]; [13]
  Blackgrass plant response rating: 10
Blackgrass [1]; [14]
  Blackgrass plant response rating: 7
Blackgrass [1]; [15]
  Blackgrass plant response rating: 8
Winter wheat [2]; [16]
  Plant response rating, Wheat (winter): 50
Winter wheat [2]; Rate 62 g/ha, 0 to 100 scale
  Plant response rating, Wheat (winter): 40
Winter wheat [2]; Rate 125 g/ha, 0 to 100 scale
  Plant response rating, Wheat (winter): 30
Winter wheat [2]; Rate 250 g/ha, 0 to 100 scale (0 no effect, 100 complete control)
  Plant response rating, Wheat (winter): 0
bedstraw; [17]
  Bedstraw plant response rating: 2
bedstraw; [9]
  Bedstraw plant response rating: 4
bedstraw; [10]
  Bedstraw plant response rating: 2
bedstraw; [11]
  Plant response rating, Bedstraw: 7
bedstraw; [12]
  Plant response rating, Bedstraw: 10
bedstraw; [13]
  Bedstraw plant response rating: 10
bedstraw; [18]
  Bedstraw plant response rating: 3
bedstraw; [15]
  Bedstraw plant response rating: 9
Italian ryegrass; [16]
  Plant response rating, I. Ryegrass: 40
Italian ryegrass; [19]
  Plant response rating, I. Ryegrass: 55
Italian ryegrass; [20]
  Plant response rating, I. Ryegrass: 98
Italian ryegrass; Rate 250 g/ha, 0 to 100 scale
  Plant response rating, I. Ryegrass: 95
Smallflower flatsedge; Pre-emergence, Rate 1000 g/ha, scale 0 to 10 (0 no effect, 10 complete control)
  S. Flatsedge plant response rating: 0
Smallflower flatsedge; Rate 250 g/ha, headed Pre-emergence (flood test species), scale 0 to 10 (0 no effect, 10 complete control)
  S. Flatsedge plant response rating: 0
Smallflower flatsedge; Rate 500 g/ha, headed Pre-emergence (flood test species), scale 0 to 10 (0 no effect, 10 complete control)
  Plant response rating, S. Flatsedge: 0
Smallflower flatsedge; Rate 2000 g/ha, Pre-emergence (as headed), scale 0 to 10
  S. Flatsedge plant response rating: 5
Blackgrass [3]; [16]
  Plant response rating, Blackgrass: 30
Blackgrass [3]; [19]
  Plant response rating, Blackgrass: 60
Blackgrass [3]; [20]
  Plant response rating, Blackgrass: 85
Blackgrass [3]; Rate 250 g/ha, 0 to 100 scale
  Plant response rating, Blackgrass: 80
Surinam grass; [17]
  B. signalgrass plant response rating: 7
Surinam grass; [9]
  B. signalgrass plant response rating: 8
Surinam grass; [10]
  B. signalgrass plant response rating: 5
Surinam grass; [11]
  Plant response rating, B. signalgrass: 7
Surinam grass; [12]
  Plant response rating, B. signalgrass: 10
Surinam grass; [13]
  B. signalgrass plant response rating: 10
Surinam grass; [18]
  B. signalgrass plant response rating: 7
Surinam grass; Rate 500 g/ha, Postemergence, scale of 0 to 10 where 0 is no effect and 10 is complete control
  B. signalgrass plant response rating: 8
bermuda-grass; [21]
  Plant response rating, Bermudagrass: 85
bermuda-grass; [22]
  Plant response rating, Bermudagrass: 100
bermuda-grass; [23]
  Plant response rating, Bermudagrass: 100
bermuda-grass; [24]
  Plant response rating, Bermudagrass: 100
bermuda-grass; Rate 250 g/ha
  Plant response rating, Bermudagrass: 100
bermuda-grass; Rate 500 g/ha
  Plant response rating, Bermudagrass: 100
Green foxtail [4]; [16]
  Plant response rating, Green foxtail: 55
Green foxtail [4]; [19]
  Plant response rating, Green foxtail: 80
Green foxtail [4]; [20]
  Plant response rating, Green foxtail: 100
Green foxtail [4]; Rate 250 g/ha, 0 to 100 scale
  Plant response rating, Green foxtail: 95
Wild oat; [16]
  Plant response rating, Wild oat: 20
Wild oat; [19]
  Plant response rating, Wild oat: 50
Wild oat; [20]
  Plant response rating, Wild oat: 60
Winter wheat [5]; [16]
  Plant response rating, Wheat (winter): 0
Winter wheat [5]; [19]
  Plant response rating, Wheat (winter): 50
Winter wheat [5]; [20]
  Plant response rating, Wheat (winter): 30
Winter wheat [5]; Rate 250 g/ha, 0 to 100 scale
  Plant response rating, Wheat (winter): 40
Winter barley; [16]
  Plant response rating, Barley (winter): 10
Winter barley; [19]
  Plant response rating, Barley (winter): 20
Winter barley; [20]
  Plant response rating, Barley (winter): 20
Winter barley; Rate 250 g/ha, 0 to 100 scale
  Plant response rating, Barley (winter): 15

## COCC(C)n1c(=O)on(C(=O)N(c2ccc(F)cc2F)C(C)C)c1=O (stereo not shown) [Compound 352]
goosegrass; [21]
  Plant response rating, Goosegrass: 0
goosegrass; [22]
  Plant response rating, Goosegrass: 90
goosegrass; [23]
  Plant response rating, Goosegrass: 100
goosegrass; [24]
  Plant response rating, Goosegrass: 100
goosegrass; Rate 250 g/ha
  Plant response rating, Goosegrass: 100
Green foxtail [6]; Rate 64 g/ha
  Green foxtail plant response rating: 100
Green foxtail [6]; Rate 125 g/ha
  Green foxtail plant response rating: 100
Blackgrass [1]; [25]
  Plant response rating, Blackgrass: 8
Blackgrass [1]; [10]
  Plant response rating, Blackgrass: 9
Blackgrass [1]; Preemergence, Rate 125 g/ha
  Blackgrass plant response rating (0 to 10 scale): 10
Blackgrass [1]; [12]
  Blackgrass plant response rating: 10
Blackgrass [1]; [26]
  Blackgrass plant response rating: 10
Blackgrass [1]; [14]
  Blackgrass plant response rating: 8
Blackgrass [1]; [27]
  Plant response rating, Blackgrass: 8
Blackgrass [1]; [15]
  Plant response rating, Blackgrass: 8
bedstraw; [25]
  Plant response rating, Bedstraw: 0
bedstraw; [10]
  Plant response rating, Bedstraw: 0
bedstraw; Preemergence, Rate 125 g/ha
  Bedstraw plant response rating (0 to 10 scale): 0
bedstraw; [14]
  Bedstraw plant response rating: 0
bedstraw; [27]
  Plant response rating, Bedstraw: 2
bedstraw; [15]
  Plant response rating, Bedstraw: 4
Smallflower flatsedge; [28]
  Plant response rating, S. Flatsedge: 7
Smallflower flatsedge; [29]
  S. Flatsedge plant response rating: 2
Smallflower flatsedge; [30]
  Plant response rating, S. Flatsedge: 7
Green foxtail [7]; Rate 64 g/ha
  Plant response rating, Green foxtail: 100
Green foxtail [7]; Rate 125 g/ha
  Plant response rating, Green foxtail: 100
Surinam grass; [25]
  Plant response rating, B. signalgrass: 2
Surinam grass; [10]
  Plant response rating, B. signalgrass: 2
Surinam grass; Preemergence, Rate 125 g/ha
  B. signalgrass plant response rating (0 to 10 scale, 0 is no effect, 10 is complete control): 6
Surinam grass; [12]
  B. signalgrass plant response rating: 7
Surinam grass; [26]
  B. signalgrass plant response rating: 7
Surinam grass; [14]
  B. signalgrass plant response rating: 0
Surinam grass; [27]
  Plant response rating, B. signalgrass: 7
Surinam grass; [15]
  Plant response rating, B. signalgrass: 7
Green foxtail [8]
  Plant response rating, Green foxtail: 100

## CC(C)N(C(=O)n1oc(=O)n(C2(C)CC2)c1=O)c1ccccc1 [Compound 360]
goosegrass; [21]
  Plant response rating, Goosegrass: 20
goosegrass; [22]
  Plant response rating, Goosegrass: 100
goosegrass; [23]
  Plant response rating, Goosegrass: 100
goosegrass; [24]
  Plant response rating, Goosegrass: 100
goosegrass; Rate 250 g/ha
  Plant response rating, Goosegrass: 100
Green foxtail [6]; Rate 64 g/ha
  Green foxtail plant response rating: 100
Green foxtail [6]; Rate 125 g/ha
  Green foxtail plant response rating: 100
Blackgrass [1]; [25]
  Plant response rating, Blackgrass: 5
Blackgrass [1]; [31]
  Plant response rating, Blackgrass: 6
Blackgrass [1]; [10]
  Plant response rating, Blackgrass: 9
Blackgrass [1]; Preemergence, Rate 125 g/ha
  Blackgrass plant response rating (0 to 10 scale): 9
Blackgrass [1]; [12]
  Blackgrass plant response rating: 9
Blackgrass [1]; [26]
  Blackgrass plant response rating: 10
Blackgrass [1]; [14]
  Blackgrass plant response rating: 5
Blackgrass [1]; [15]
  Plant response rating, Blackgrass: 7
bedstraw; [25]
  Plant response rating, Bedstraw: 0
bedstraw; [31]
  Plant response rating, Bedstraw: 2
bedstraw; [14]
  Bedstraw plant response rating: 0
bedstraw; [15]
  Plant response rating, Bedstraw: 4
Smallflower flatsedge; [28]
  Plant response rating, S. Flatsedge: 4
Smallflower flatsedge; [29]
  S. Flatsedge plant response rating: 2
Smallflower flatsedge; [30]
  Plant response rating, S. Flatsedge: 8
Smallflower flatsedge; flood test species, listed under Postemergence, Rate 250 g/ha, scale 0 to 10, 0 is no effect, 10 is complete control
  Plant response rating, S. Flatsedge: 4
Green foxtail [7]; Rate 64 g/ha
  Plant response rating, Green foxtail: 100
Green foxtail [7]; Rate 125 g/ha
  Plant response rating, Green foxtail: 100
Surinam grass; [25]
  Plant response rating, B. signalgrass: 0
Surinam grass; [31]
  Plant response rating, B. signalgrass: 5
Surinam grass; [10]
  Plant response rating, B. signalgrass: 5
Surinam grass; Preemergence, Rate 125 g/ha
  B. signalgrass plant response rating (0 to 10 scale, 0 is no effect, 10 is complete control): 6
Surinam grass; [12]
  B. signalgrass plant response rating: 7
Surinam grass; [26]
  B. signalgrass plant response rating: 7
Surinam grass; [14]
  B. signalgrass plant response rating: 0
Surinam grass; [15]
  Plant response rating, B. signalgrass: 7
Green foxtail [8]
  Plant response rating, Green foxtail: 100
